Data on 30 compounds can be found in patent US7704995B2 (Exelixis, Inc., priority 2003, dated 2010).

Each structure is given as a SMILES string.

This test concerns the target T1, Chk1 (Homo sapiens, UniProt O14757).
T1 construct: purchased Upstate Biotechnology
T1 sequence (O14757 1-476): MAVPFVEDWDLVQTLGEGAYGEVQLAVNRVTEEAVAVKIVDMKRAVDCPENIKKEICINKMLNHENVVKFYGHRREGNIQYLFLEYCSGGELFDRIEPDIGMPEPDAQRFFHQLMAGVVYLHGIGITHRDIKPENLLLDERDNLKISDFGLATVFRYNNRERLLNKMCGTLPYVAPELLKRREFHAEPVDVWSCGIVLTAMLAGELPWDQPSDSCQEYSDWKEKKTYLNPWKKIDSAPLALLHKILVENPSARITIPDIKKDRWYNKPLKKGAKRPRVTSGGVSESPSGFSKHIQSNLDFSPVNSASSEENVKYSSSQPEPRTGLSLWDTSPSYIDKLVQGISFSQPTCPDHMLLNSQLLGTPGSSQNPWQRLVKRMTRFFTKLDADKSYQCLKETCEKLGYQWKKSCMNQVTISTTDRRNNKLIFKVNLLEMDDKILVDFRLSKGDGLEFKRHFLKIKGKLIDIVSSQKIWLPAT
Description: Chk1 kinase assay: incorporation of γ-33P ATP into immobilized myelin basic protein. As to conditions: read-out: Chk1 IC50. It is filed as biochemical. Summed up:
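Chk1 (10 nM) or Chk2 (20 nM) phosphorylated plate-immobilized myelin basic protein for 1 h at room temperature in Hepes pH 7.6 buffer with MgCl2, DTT, 1% DMSO, γ-33P ATP plus 10 μM (Chk1) or 30 μM (Chk2) unlabeled ATP. Bound radioactivity counted by scintillation; IC50 determined, Ki derivable from IC50.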
For the compound `CNC(=O)c1nc(-c2cccc(CNC(=O)C3CCN(c4ncc(C(F)(F)F)cn4)CC3)c2)cnc1N` [Example 354, 3-amino-N-methyl-6-(3-{[({1-[5-(trifluoromethyl)pyrimidin-2-yl]piperidin-4-yl}carbonyl)amino]methyl}phenyl)pyrazine-2-carboxamide], the 50% inhibitory concentration (IC50) was in the range of 50 to 1000 nM.

On to `CNC(=O)c1nc(-c2cccc(C(=O)NCc3ccccc3N3CCCCC3)c2)cnc1N` [Example 355, 3-amino-N-methyl-6-[3-({[(2-piperidin-1-ylphenyl)methyl]amino}carbonyl)phenyl]pyrazine-2-carboxamide], for which the IC50 lay within 50 to 1000 nM.

Regarding `CNC(=O)c1nc(-c2cccc(C(=O)NCc3ccccc3SC)c2)cnc1N` [Example 356, 3-amino-N-methyl-6-{3-[({[2-(methylthio)phenyl]methyl}amino)carbonyl]phenyl}pyrazine-2-carboxamide], the half-inhibitory concentration (IC50) was less than 50 nM.

As to `CNC(=O)c1nc(-c2cccc(C(=O)N[C@@H]3CCN(C(=O)OC(C)(C)C)C3)c2)cnc1N` [Example 357, 1,1-dimethylethyl (3R)-3-{[(3-{5-amino-6-[(methylamino)carbonyl]pyrazin-2-yl}phenyl)carbonyl]amino}pyrrolidine-1-carboxylate], the IC50 lay in the range of 1000 to 10000 nM.

Regarding `CNC(=O)c1nc(-c2cccc(C(=O)N[C@@H]3CCNC3)c2)cnc1N` [Example 358, 3-amino-N-methyl-6-(3-{[(3R)-pyrrolidin-3-ylamino]carbonyl}phenyl)pyrazine-2-carboxamide], the concentration for half-maximal inhibition (IC50) was 1000 to 10000 nM.

On to `CNC(=O)c1nc(-c2cccc(C(=O)N[C@@H]3CCN(Cc4ccc(Cl)cc4)C3)c2)cnc1NCc1ccc(Cl)cc1` [Example 359, 3-{[(4-chlorophenyl)methyl]amino}-6-{3-[({(3R)-1-[(4-chlorophenyl)methyl]pyrrolidin-3-yl}amino)carbonyl]phenyl}-N-methylpyrazine-2-carboxamide], for which the half-maximal inhibitory concentration (IC50) lay within 50 to 1000 nM.

`CNC(=O)c1nc(-c2cccc(C(=O)N[C@@H]3CCN(Cc4ccc(Cl)cc4Cl)C3)c2)cnc1N` [Example 360, 3-amino-6-{3-[({(3R)-1-[(2,4-dichlorophenyl)methyl]pyrrolidin-3-yl}amino)carbonyl]phenyl}-N-methylpyrazine-2-carboxamide]: the half-inhibitory concentration (IC50) fell in the range of 50 to 1000 nM.

For `CNC(=O)c1nc(-c2cccc(C(=O)N[C@@H]3CCN(Cc4cccc(OC)c4)C3)c2)cnc1NCc1cccc(OC)c1` [Example 361, N-methyl-3-({[3-(methyloxy)phenyl]methyl}amino)-6-(3-{[((3R)-1-{[3-(methyloxy)phenyl]methyl}pyrrolidin-3-yl)amino]carbonyl}phenyl)pyrazine-2-carboxamide], the IC50 lay within 50 to 1000 nM.

On to `CNC(=O)c1nc(-c2cccc(C(=O)N[C@@H]3CCN(Cc4c(Cl)cccc4Cl)C3)c2)cnc1N` [Example 362, 3-amino-6-{3-[({(3R)-1-[(2,6-dichlorophenyl)methyl]pyrrolidin-3-yl}amino)carbonyl]phenyl}-N-methylpyrazine-2-carboxamide], for which the IC50 is 50 to 1000 nM.

Consider `CNC(=O)c1nc(-c2cccc(C(=O)N[C@@H]3CCN(Cc4ccccc4)C3)c2)cnc1NCc1ccccc1` [Example 363, N-methyl-3-[(phenylmethyl)amino]-6-[3-({[(3R)-1-(phenylmethyl)pyrrolidin-3-yl]amino}carbonyl)phenyl]pyrazine-2-carboxamide], for which the IC50 lay within 50 to 1000 nM.

Regarding `CNC(=O)c1nc(-c2cccc(C(=O)NCC3CCN(C(=O)OC(C)(C)C)C3)c2)cnc1N` (stereo not drawn) [Example 364, 1,1-dimethylethyl 3-({[(3-{5-amino-6-[(methylamino)carbonyl]pyrazin-2-yl}phenyl)carbonyl]amino}methyl)pyrrolidine-1-carboxylate], the half-maximal inhibitory concentration (IC50) was 50 to 1000 nM.

For `CNC(=O)c1nc(-c2cccc(C(=O)NCC3CCCN3C(=O)OC(C)(C)C)c2)cnc1N` (stereo not drawn) [Example 365, 1,1-dimethylethyl 2-({[(3-{5-amino-6-[(methylamino)carbonyl]pyrazin-2-yl}phenyl)carbonyl]amino}methyl)pyrrolidine-1-carboxylate], the 50% inhibitory concentration (IC50) was 1000 to 10000 nM.

Regarding `CNC(=O)c1nc(-c2cccc(C(=O)NCC3CCNC3)c2)cnc1N` (stereo not drawn) [Example 366, 3-amino-N-methyl-6-(3-{[(pyrrolidin-3-ylmethyl)amino]carbonyl}phenyl)pyrazine-2-carboxamide], the IC50 lay in the range of 50 to 1000 nM.

On to `CNC(=O)c1nc(-c2cccc(C(=O)NCC3CCCN3)c2)cnc1N` (stereo not drawn) [Example 367, 3-amino-N-methyl-6-(3-{[(pyrrolidin-2-ylmethyl)amino]carbonyl}phenyl)pyrazine-2-carboxamide], for which the IC50 was 50 to 1000 nM.

Turning to `CNC(=O)c1nc(-c2cc(C(=O)NCc3ccccc3)ccc2F)cnc1N` [Example 368, 3-amino-6-(2-fluoro-5-{[(phenylmethyl)amino]carbonyl}phenyl)-N-methylpyrazine-2-carboxamide], the IC50 lay in the range of 50 to 1000 nM.

With `CNC(=O)c1nc(-c2cccc(NC(=O)Cc3ccc4c(c3)OCO4)c2)cnc1N` [Example 369, 3-amino-6-{3-[(1,3-benzodioxol-5-ylacetyl)amino]phenyl}-N-methylpyrazine-2-carboxamide], the half-maximal inhibitory concentration (IC50) fell in the range of 50 to 1000 nM.

`CNC(=O)c1nc(-c2cccc(C(=O)NCc3ccc(F)cc3Cl)c2)cnc1N` [Example 370, 3-amino-6-[3-({[(2-chloro-4-fluorophenyl)methyl]amino}carbonyl)phenyl]-N-methylpyrazine-2-carboxamide]: the half-inhibitory concentration (IC50) fell in the range of 50 to 1000 nM.

Turning to `CNC(=O)c1nc(-c2cccc(C(=O)NCc3ccc(OC)c(OC)c3)c2)cnc1N` [Example 371, 3-amino-6-{3-[({[3,4-bis(methyloxy)phenyl]methyl}amino)carbonyl]phenyl}-N-methylpyrazine-2-carboxamide], the half-maximal inhibitory concentration (IC50) was in the range of 50 to 1000 nM.

Consider `CNC(=O)c1nc(-c2cccc(NCc3ccccc3)c2)cnc1N` [Example 372, 3-amino-N-methyl-6-{3-[(phenylmethyl)amino]phenyl}pyrazine-2-carboxamide], for which the IC50 is 50 to 1000 nM.

As to `CNC(=O)c1nc(-c2cccc(C(=O)NCc3ccccc3OCCN3CCOCC3)c2)cnc1N` [Example 373, 3-amino-N-methyl-6-(3-{[({2-[(2-morpholin-4-ylethyl)oxy]phenyl}methyl)amino]carbonyl}phenyl)pyrazine-2-carboxamide], the IC50 is 50 to 1000 nM.

In the case of `CNC(=O)c1nc(-c2cccc(CNC(=O)c3ccc(C(C)C)cc3)c2)cnc1N` [Example 374, 3-amino-N-methyl-6-{3-[({[4-(1-methylethyl)phenyl]carbonyl}amino)methyl]phenyl}pyrazine-2-carboxamide], the half-inhibitory concentration (IC50) lay in the range of 50 to 1000 nM.

For `CCCCc1ccc(CNC(=O)c2cccc(-c3cnc(N)c(C(=O)NC)n3)c2)cc1` [Example 375, 3-amino-6-[3-({[(4-butylphenyl)methyl]amino}carbonyl)phenyl]-N-methylpyrazine-2-carboxamide], the IC50 is 50 to 1000 nM.

Consider `CNC(=O)c1nc(-c2cccc(C(=O)NCc3ccc(-c4csnn4)cc3)c2)cnc1N` [Example 376, 3-amino-N-methyl-6-{3-[({[4-(1,2,3-thiadiazol-4-yl)phenyl]methyl}amino)carbonyl]phenyl}pyrazine-2-carboxamide], for which the concentration for half-maximal inhibition (IC50) was less than 50 nM.

With `CNC(=O)c1nc(-c2cccc(C(=O)NCc3ccc(-c4cccs4)cc3)c2)cnc1N` [Example 377, 3-amino-N-methyl-6-{3-[({[4-(2-thienyl)phenyl]methyl}amino)carbonyl]phenyl}pyrazine-2-carboxamide], the IC50 is less than 50 nM.

Regarding `CNC(=O)c1nc(-c2cccc(CNC(=O)c3ccc(C(C)(C)C)cc3)c2)cnc1N` [Example 378, 3-amino-6-{3-[({[4-(1,1-dimethylethyl)phenyl]carbonyl}amino)methyl]phenyl}-N-methylpyrazine-2-carboxamide], the half-inhibitory concentration (IC50) was 50 to 1000 nM.

Consider `CNC(=O)c1nc(-c2cccc(C(=O)NCc3ccc(-n4cccn4)cc3)c2)cnc1N` [Example 379, 3-amino-N-methyl-6-{3-[({[4-(1H-pyrazol-1-yl)phenyl]methyl}amino)carbonyl]phenyl}pyrazine-2-carboxamide], for which the IC50 lay within 50 to 1000 nM.

Regarding `CNC(=O)c1nc(-c2cccc(C(=O)NCc3ccc4c(c3)NCCO4)c2)cnc1N` [Example 380, 3-amino-6-(3-{[(3,4-dihydro-2H-1,4-benzoxazin-6-ylmethyl)amino]carbonyl}phenyl)-N-methylpyrazine-2-carboxamide], the IC50 is 50 to 1000 nM.

Turning to `CNC(=O)c1nc(-c2cccc(C(=O)NCc3c(N)cccc3F)c2)cnc1N` [Example 381, 3-amino-6-[3-({[(2-amino-6-fluorophenyl)methyl]amino}carbonyl)phenyl]-N-methylpyrazine-2-carboxamide], the concentration for half-maximal inhibition (IC50) lay within 50 to 1000 nM.

With `CNC(=O)c1nc(-c2cccc(CNCc3ccc(-c4ccccc4)cc3)c2)cnc1N` [Example 382, 3-amino-6-(3-{[(biphenyl-4-ylmethyl)amino]methyl}phenyl)-N-methylpyrazine-2-carboxamide], the IC50 lay in the range of 50 to 1000 nM.

`CNC(=O)c1nc(-c2cccc(CNCc3ccccc3-c3ccccc3)c2)cnc1N` [Example 383, 3-amino-6-(3-{[(biphenyl-2-ylmethyl)amino]methyl}phenyl)-N-methylpyrazine-2-carboxamide]: the IC50 fell in the range of 50 to 1000 nM.
